Reference: patent US20100041646A1, “Phenylene-Bis-Oxazolidine Derivatives and Their Use as Anticoagulants” (BAYER HEALTHCARE AG, priority 2005, published 2010)

Target: human factor Xa (FXa) (Homo sapiens, UniProt P00742)
Assay: Determination of the factor Xa inhibition (chromogenic substrate)
Type: biochemical
Settings: human FXa 0.5 nmol/l, 150 μmol/l Pefachrome FXa, 25° C., extinction at 405 nm
Method: The enzymatic inhibition of human factor Xa (FXa) is measured using the conversion of a chromogenic substrate specific for FXa. Factor Xa cleaves p-nitroaniline from the chromogenic substrate. The determinations are carried out in microtiter plates as follows:
The test substances, in various concentrations, are dissolved in DMSO and incubated for 10 minutes at 25° C. with human FXa (0.5 nmol/l dissolved in 50 mmol/l of Tris buffer [C,C,C-tris(hydroxymethyl)aminomethane], 150 mmol/l of NaCl, 0.1% BSA [bovine serum albumin], pH 20=8.3). Pure DMSO is used as control. The chromogenic substrate (150 μmol/l Pefachrome® FXa from Pentapharm) is then added. After an incubation time of 20 minutes at 25° C., the extinction at 405 nm is determined.

Chain of human factor Xa (FXa) (P00742 235-488 limits assumed): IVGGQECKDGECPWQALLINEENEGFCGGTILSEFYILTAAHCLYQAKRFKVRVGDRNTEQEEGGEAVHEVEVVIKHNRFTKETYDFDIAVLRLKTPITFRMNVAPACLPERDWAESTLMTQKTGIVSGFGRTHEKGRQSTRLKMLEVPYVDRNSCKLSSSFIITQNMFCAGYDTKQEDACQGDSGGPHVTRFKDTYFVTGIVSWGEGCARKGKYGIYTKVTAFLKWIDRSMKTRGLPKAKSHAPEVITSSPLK
Chain of human factor Xa (FXa) (P00742 41-179 partner limits assumed): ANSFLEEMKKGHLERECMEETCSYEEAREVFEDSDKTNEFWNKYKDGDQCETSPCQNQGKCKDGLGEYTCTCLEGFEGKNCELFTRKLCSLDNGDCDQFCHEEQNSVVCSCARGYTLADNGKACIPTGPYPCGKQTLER

| SMILES | IC50 [nM] |
| --- | --- |
| N=C1OCCN1c1ccc(N2C[C@H](CNC(=O)c3ccc(Cl)s3)OC2=O)cc1 [Example 1, 5-Chloro-N-({(5S)-3-[4-(2-imino-1,3-oxazolidin-3-yl)phenyl]-2-oxo-1,3-oxazolidin-5-yl}methyl)thiophene-2-carboxamide] | 1.1 |
| N=C1OCCCN1c1ccc(N2C[C@H](CNC(=O)c3ccc(Cl)s3)OC2=O)cc1 [Example 5, 5-Chloro-N-({(5S)-3-[4-(2-imino-1,3-oxazinan-3-yl)phenyl]-2-oxo-1,3-oxazolidin-5-yl}methyl)thiophene-2-carboxamide methanesulfonate] | 3.1 |
| N#CN=C1OCCN1c1ccc(N2C[C@H](CNC(=O)c3ccc(Cl)s3)OC2=O)cc1 [Example 6, 5-Chloro-N-[((5S)-3-{4-[2-(cyanoimino)-1,3-oxazolidin-3-yl]phenyl}-2-oxo-1,3-oxazolidin-5-yl)methyl]thiophene-2-carboxamide] | 16 |
